Experiment [1] has as its target T1, BTK-1h (Homo sapiens, UniProt Q06187).
T1 construct: The BTK kinase domain was diluted to 2 μM in the buffer, and 2 μM 1h was added; made in house
In words: High-throughput screening with 1h-labeled BTK. The class given is binding. The note with it: Dataset S2A; 200 μM compound, BTK-1h, 32 °C, 10 min. The protocol: The collection was composed of BTK binding compounds obtained in our previous luminescence screen[37] (Data set S2). […] The resulting BTK-1h (50 μL) was added to the inhibitors.

Experiment [2] deals with BTK (Homo sapiens, UniProt Q06187). Also on record: BTK kinase domain was expressed and purified as previously reported; made in house; method as in Reddi et al., J. Am. Chem. Soc. 2021, 143 (13), 4979–4992. The note with it: ref Reddi et al., J. Am. Chem. Soc. 2021, 143 (13), 4979–4992; cited from earlier work.

Results on 14 molecules are retold here after publication PMC8662641, “Site-Specific Labeling of Endogenous Proteins Using CoLDR Chemistry” (Journal of the American Chemical Society, 2021).

BTK, sequence (Q06187 402-655 limits assumed): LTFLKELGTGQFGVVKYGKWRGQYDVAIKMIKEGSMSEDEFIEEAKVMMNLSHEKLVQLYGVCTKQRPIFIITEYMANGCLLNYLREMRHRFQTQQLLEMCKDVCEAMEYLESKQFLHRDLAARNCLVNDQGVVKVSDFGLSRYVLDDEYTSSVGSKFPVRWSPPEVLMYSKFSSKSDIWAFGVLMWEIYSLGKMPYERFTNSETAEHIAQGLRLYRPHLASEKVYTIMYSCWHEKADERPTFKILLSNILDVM
T1 sequence (Q06187 402-655): as the sequence (Q06187 402-655 limits assumed) above

Regarding `CCOc1cc2ncc(C#N)c(Nc3ccc(F)c(Cl)c3)c2cc1NC(=O)/C=C/CN(C)C` [PCM-0095063-002], in experiment [1], the “FI (650)/FI (620)” value is listed as 0.9721 and the “FI (BTK-1h)/FI (BTK-1h+Inhibitor) at 620 nm” value is 1.036. For the same molecule, the “BTK Inhibition reported in luminescence assay*” value (“BTK Inhibition reported” for short) in experiment [2] is recorded as 96.6.

Regarding `CC(C)N1CCN(Cc2cnc(-c3cc(-c4cccc5[nH]ccc45)cc4[nH]ncc34)o2)CC1` [PCM-0213407-002], in experiment [1], the “FI (650)/FI (620)” value was 0.9167 and the “FI (BTK-1h)/FI (BTK-1h+Inhibitor) at 620 nm” value is 1.042. In experiment [2], the “BTK Inhibition reported” value was 51.7.

Consider `N#CC(C#N)=Cc1ccc(O)c(O)c1` [PCM-0064867-001], for which, in experiment [1], the “FI (650)/FI (620)” value is 0.9306 and the “FI (BTK-1h)/FI (BTK-1h+Inhibitor) at 620 nm” value is reported as 1.013. The “BTK Inhibition reported” value in experiment [2] is 54.5.

Consider `COC(=O)N[C@H](C(=O)N1CC2(CC2)C[C@H]1c1ncc(-c2ccc3c(c2)C(F)(F)c2cc(-c4ccc5nc([C@@H]6[C@H]7CC[C@H](C7)N6C(=O)[C@@H](NC(=O)OC)C(C)C)[nH]c5c4)ccc2-3)[nH]1)C(C)C` [PCM-0215396-001], for which, in experiment [1], the “FI (650)/FI (620)” value was 0.8983 and the “FI (BTK-1h)/FI (BTK-1h+Inhibitor) at 620 nm” value is 1.05. The “BTK Inhibition reported” value in experiment [2] was 74.9.

In the case of `COc1cc(NC(=O)c2ccc(-c3ccc(Cl)cc3)o2)cc(OC)c1` [PCM-0095366-002], in experiment [1], the “FI (650)/FI (620)” value worked out at 1.0001 and the “FI (BTK-1h)/FI (BTK-1h+Inhibitor) at 620 nm” value is 1.041. The “BTK Inhibition reported” value in experiment [2] is reported as 56.8.

Take `O=[N+]([O-])c1ccc(Nc2ccccc2-c2ccccc2)c2nonc12` [PCM-0215806-001]: in experiment [1], the “FI (650)/FI (620)” value is given as 1.017 and the “FI (BTK-1h)/FI (BTK-1h+Inhibitor) at 620 nm” value is 1.01. Further, in experiment [2], the “BTK Inhibition reported” value was 74.1.

Consider `COc1ccc2[nH]cc(/C=C3\C(=O)Nc4ccc(NC(=O)CCN5CCCCC5)cc43)c2c1` [PCM-0216653-001], for which, in experiment [1], the “FI (650)/FI (620)” value is on record as 1.609 and the “FI (BTK-1h)/FI (BTK-1h+Inhibitor) at 620 nm” value was 0.9946. For the same molecule, in experiment [2], the “BTK Inhibition reported” value is on record as 51.7.

Take `O=c1cc(-c2ccc(O)c(O)c2)oc2cc(O)cc(O)c12` [PCM-0086559-001]: in experiment [1], the “FI (650)/FI (620)” value is on record as 2.125 and the “FI (BTK-1h)/FI (BTK-1h+Inhibitor) at 620 nm” value is on record as 1.0702. In addition, the “BTK Inhibition reported” value in experiment [2] is 84.8.

For `CCCCc1oc2ccccc2c1C(=O)c1cc(I)c(OCCN(CC)CC)c(I)c1.Cl` [PCM-0064561-003], in experiment [1], the “FI (650)/FI (620)” value stood at 1.028 and the “FI (BTK-1h)/FI (BTK-1h+Inhibitor) at 620 nm” value came out at 1.018. For the same molecule, the “BTK Inhibition reported” value in experiment [2] is recorded as 75.5.

As for `O=c1c(O)c(-c2ccc(O)cc2)oc2cc(O)cc(O)c12` [PCM-0087037-002], in experiment [1], the “FI (650)/FI (620)” value came to 0.933 and the “FI (BTK-1h)/FI (BTK-1h+Inhibitor) at 620 nm” value stood at 1.031. The “BTK Inhibition reported” value in experiment [2] is on record as 67.7.

`CN(Cc1ccc(C(C)(C)C)cc1)Cc1cccc2ccccc12.Cl` [PCM-0086068-001]: in experiment [1], the “FI (650)/FI (620)” value stood at 0.9972 and the “FI (BTK-1h)/FI (BTK-1h+Inhibitor) at 620 nm” value is 1.029. Moreover, the “BTK Inhibition reported” value in experiment [2] is given as 62.3.

As to `Cl.O=C(c1ccc(OCCN2CCCCC2)cc1)c1c(-c2ccc(O)cc2)sc2cc(O)ccc12` [PCM-0065394-003], in experiment [1], the “FI (650)/FI (620)” value is recorded as 1.378 and the “FI (BTK-1h)/FI (BTK-1h+Inhibitor) at 620 nm” value was 1.018. Also, the “BTK Inhibition reported” value in experiment [2] is reported as 85.5.

For `O=C(O)c1ccc(N2C(=O)/C(=C/c3ccc(-c4ccc([N+](=O)[O-])cc4)o3)C=C2c2ccccc2)cc1` [PCM-0095764-003], in experiment [1], the “FI (650)/FI (620)” value is 1.233 and the “FI (BTK-1h)/FI (BTK-1h+Inhibitor) at 620 nm” value is listed as 0.999. The “BTK Inhibition reported” value in experiment [2] was 98.1.

As to `C1=C/COCc2cc(ccc2OCCN2CCCC2)Nc2nccc(n2)-c2cccc(c2)COC/1` [PCM-0215268-001], in experiment [1], the “FI (650)/FI (620)” value is on record as 1.364 and the “FI (BTK-1h)/FI (BTK-1h+Inhibitor) at 620 nm” value is 1.2233. For the same molecule, the “BTK Inhibition reported” value in experiment [2] is on record as 71.7.
